In the experiment the test system is MV-4-11 cells. Kind of experiment: Gene expression microarray analysis (Affymetrix PrimeView) and GSEA. In kind it is cell-based, human. On the set-up: RFU PODN (11730768_x_at) / Fold change /veh PODN (11730768_x_at) / RFU LINC00158 (11744669_a_at) / Fold change /veh LINC00158 (11744669_a_at) / RFU DUSP10 (11751237_a_at) / Fold change /veh DUSP10 (11751237_a_at) / RFU ID3 (11757404_x_at) / Fold change /veh ID3 (11757404_x_at) / RFU PLEKHG5 (11737974_s_at) / Fold change /veh PLEKHG5 (11737974_s_at) / RFU LRRC4B (11730491_at) / Fold change /veh LRRC4B (11730491_at) / RFU GIMAP4 (11747438_a_at) / Fold change /veh GIMAP4 (11747438_a_at) / RFU KRT8 (11758183_x_at) / Fold change /veh KRT8 (11758183_x_at) / RFU CNN1 (11734310_a_at) / Fold change /veh CNN1 (11734310_a_at) / RFU VPS37D (11726825_at) / Fold change /veh VPS37D (11726825_at) / RFU C10orf10 (11716522_x_at) / Fold change /veh C10orf10 (11716522_x_at) / RFU KIR2DL2 /// KIR2DL4 /// KIR2DL5A /// KIR2DL5B /// KIR2DS1 /// KIR2DS2 /// KIR2DS3 /// KIR2DS4 /// KIR3DL3 /// KIR3DL3 /// KIR3DS1 (11738374_at) / Fold change /veh KIR2DL2 /// KIR2DL4 /// KIR2DL5A /// KIR2DL5B /// KIR2DS1 /// KIR2DS2 /// KIR2DS3 /// KIR2DS4 /// KIR3DL3 /// KIR3DL3 /// KIR3DS1 (11738374_at) / RFU C1QL1 (11718748_at) / Fold change /veh C1QL1 (11718748_at) / RFU TMPRSS4 (11747572_a_at) / Fold change /veh TMPRSS4 (11747572_a_at) / RFU HAMP (11756126_x_at) / Fold change /veh HAMP (11756126_x_at) / RFU RNFT2 (11725882_a_at) / Fold change /veh RNFT2 (11725882_a_at) / RFU NR4A2 (11747474_a_at) / Fold change /veh NR4A2 (11747474_a_at) / RFU ABCC12 (11746883_a_at) / Fold change /veh ABCC12 (11746883_a_at) / RFU TMEM136 (11760407_x_at) / Fold change /veh TMEM136 (11760407_x_at) / RFU CLDN22 /// WWC2 (11732394_at) / Fold change /veh CLDN22 /// WWC2 (11732394_at) / RFU HLA-DPB1 (11760878_x_at) / Fold change /veh HLA-DPB1 (11760878_x_at) / RFU SPINT1 (11716480_a_at) / Fold change /veh SPINT1 (11716480_a_at) / RFU GAP43 (11754022_s_at) / Fold change /veh GAP43 (11754022_s_at) / RFU A4GNT (11735810_at) / Fold change /veh A4GNT (11735810_at) / RFU PRB3 (11715151_x_at) / Fold change /veh PRB3 (11715151_x_at) / RFU TUBB4B (11761932_at) / Fold change /veh TUBB4B (11761932_at) / RFU CAPN14 (11732068_a_at) / Fold change /veh CAPN14 (11732068_a_at) / RFU TMCC2 (11721928_a_at) / Fold change /veh TMCC2 (11721928_a_at) / RFU IRGQ (11745062_a_at) / Fold change /veh IRGQ (11745062_a_at) / RFU FAM174B (11720279_a_at) / Fold change /veh FAM174B (11720279_a_at) / RFU TMPRSS4 (11748680_a_at) / Fold change /veh TMPRSS4 (11748680_a_at) / RFU FAM212B (11763350_a_at) / Fold change /veh FAM212B (11763350_a_at) / RFU PLEKHG5 (11743358_a_at) / Fold change /veh PLEKHG5 (11743358_a_at) / RFU ZSCAN30 (11745921_a_at) / Fold change /veh ZSCAN30 (11745921_a_at) / RFU CMKLR1 (11741424_a_at) / Fold change /veh CMKLR1 (11741424_a_at) / RFU LOC101060620 /// MAPK8IP1 (11723275_at) / Fold change /veh LOC101060620 /// MAPK8IP1 (11723275_at) / RFU SPTSSB (11747773_x_at) / Fold change /veh SPTSSB (11747773_x_at) / RFU PRSS12 (11739890_at) / Fold change /veh PRSS12 (11739890_at) / RFU BIN1 (11741810_x_at) / Fold change /veh BIN1 (11741810_x_at) / RFU WNT11 (11732464_a_at) / Fold change /veh WNT11 (11732464_a_at) / RFU C10orf10 (11716521_a_at) / Fold change /veh C10orf10 (11716521_a_at) / RFU C5orf56 (11738089_at) / Fold change /veh C5orf56 (11738089_at) / RFU CYB561 (11721691_x_at) / Fold change /veh CYB561 (11721691_x_at) / RFU ANKRD19P (11752326_a_at) / Fold change /veh ANKRD19P (11752326_a_at) / RFU OR2T12 /// OR2T33 /// OR2T8 (11738714_s_at) / Fold change /veh OR2T12 /// OR2T33 /// OR2T8 (11738714_s_at) / RFU VCAN (11748164_a_at) / Fold change /veh VCAN (11748164_a_at) / RFU JSRP1 (11732532_at) / Fold change /veh JSRP1 (11732532_at) / RFU KRTAP10-11 (11738290_x_at) / Fold change /veh KRTAP10-11 (11738290_x_at) / RFU MYO3A (11730013_a_at) / Fold change /veh MYO3A (11730013_a_at) / RFU EBF3 (11725865_a_at) / Fold change /veh EBF3 (11725865_a_at) / RFU CAMK2N1 (11719241_x_at) / Fold change /veh CAMK2N1 (11719241_x_at) / RFU C5orf56 (11738088_a_at) / Fold change /veh C5orf56 (11738088_a_at) / RFU OLFML3 (11715873_a_at) / Fold change /veh OLFML3 (11715873_a_at) / RFU LOC100653217 /// NTM (11731650_a_at) / Fold change /veh LOC100653217 /// NTM (11731650_a_at) / RFU MAPK11 (11762145_a_at) / Fold change /veh MAPK11 (11762145_a_at) / RFU FIZ1 (11724087_x_at) / Fold change /veh FIZ1 (11724087_x_at) / RFU OASL (11726364_x_at) / Fold change /veh OASL (11726364_x_at) / RFU SOX15 (11748057_x_at) / Fold change /veh SOX15 (11748057_x_at) / RFU CD79A (11719716_a_at) / Fold change /veh CD79A (11719716_a_at) / RFU HIST1H1D (11736915_at) / Fold change /veh HIST1H1D (11736915_at) / RFU CASKIN2 (11723855_a_at) / Fold change /veh CASKIN2 (11723855_a_at) / RFU LOC730098 (11760151_x_at) / Fold change /veh LOC730098 (11760151_x_at) / RFU OR4N2 (11742367_at) / Fold change /veh OR4N2 (11742367_at) / RFU PRRT2 (11749266_a_at) / Fold change /veh PRRT2 (11749266_a_at) / RFU SNX32 (11753110_a_at) / Fold change /veh SNX32 (11753110_a_at) / RFU CDHR5 (11726645_a_at) / Fold change /veh CDHR5 (11726645_a_at) / RFU RCAN1 (11760418_a_at) / Fold change /veh RCAN1 (11760418_a_at) / RFU FAM167A (11723789_a_at) / Fold change /veh FAM167A (11723789_a_at) / RFU FAM26E (11764081_at) / Fold change /veh FAM26E (11764081_at) / RFU ISYNA1 (11749810_s_at) / Fold change /veh ISYNA1 (11749810_s_at) / RFU ACY1 (11761880_at) / Fold change /veh ACY1 (11761880_at) / RFU 11764098_at / Fold change /veh 11764098_at / RFU SAMD14 (11745864_x_at) / Fold change /veh SAMD14 (11745864_x_at) / RFU NPB (11741838_a_at) / Fold change /veh NPB (11741838_a_at) / RFU TMPRSS6 (11731388_a_at) / Fold change /veh TMPRSS6 (11731388_a_at) / RFU KRTAP10-2 (11738614_at) / Fold change /veh KRTAP10-2 (11738614_at) / RFU ARHGAP8 /// PRR5-ARHGAP8 (11727945_x_at) / Fold change /veh ARHGAP8 /// PRR5-ARHGAP8 (11727945_x_at) / RFU KRTAP5-7 /// NADSYN1 (11734609_at) / Fold change /veh KRTAP5-7 /// NADSYN1 (11734609_at) / RFU RASL12 (11751679_a_at) / Fold change /veh RASL12 (11751679_a_at) / RFU CDKN2B (11736163_a_at) / Fold change /veh CDKN2B (11736163_a_at) / RFU PRF1 (11729649_at) / Fold change /veh PRF1 (11729649_at) / RFU, ZNF638 /// ZNF638-IT1 / Fold change vs veh, ZNF638 /// ZNF638-IT1 / RFU, PANK3 / Fold change vs veh, PANK3 / RFU, SH3YL1 / Fold change vs veh, SH3YL1 / RFU, ZEB2 / Fold change vs veh, ZEB2 / RFU, NRIP1 / Fold change vs veh, NRIP1 / RFU, PTTG1IP / Fold change vs veh, PTTG1IP / RFU, CAPN2 / Fold change vs veh, CAPN2 / RFU, MED14 / Fold change vs veh, MED14 / RFU, SNORA58 / Fold change vs veh, SNORA58 / RFU, C1orf63 / Fold change vs veh, C1orf63 / RFU, LRRFIP1 / Fold change vs veh, LRRFIP1 / RFU, NDUFAF7 / Fold change vs veh, NDUFAF7 / RFU, SLC12A2 / Fold change vs veh, SLC12A2 / RFU, IBTK / Fold change vs veh, IBTK / RFU, ESF1 / Fold change vs veh, ESF1 / Fold change vs veh, TMEM50B / RFU, TAOK1 / Fold change vs veh, TAOK1 / RFU, ACBD3 / Fold change vs veh, ACBD3 / RFU, TMA16 / Fold change vs veh, TMA16 / RFU, RWDD3 / Fold change vs veh, RWDD3 / RFU, BCAT1 / Fold change vs veh, BCAT1 / RFU, EDEM3 / Fold change vs veh, EDEM3 / RFU, TMEM33 / Fold change vs veh, TMEM33 / RFU, WDR75 / Fold change vs veh, WDR75 / RFU, AHCTF1 / Fold change vs veh, AHCTF1 / RFU, TFRC / Fold change vs veh, TFRC / RFU, ZDHHC17 / Fold change vs veh, ZDHHC17 / RFU, NOM1 / Fold change vs veh, NOM1 / RFU, ARL8B / Fold change vs veh, ARL8B / RFU, ZBTB11 / Fold change vs veh, ZBTB11 / RFU, TAMM41 / Fold change vs veh, TAMM41 / RFU, KIAA1704 /// LOC100996395 / Fold change vs veh, KIAA1704 /// LOC100996395 / RFU, ING1 / Fold change vs veh, ING1 / RFU, TRMT61B / Fold change vs veh, TRMT61B / RFU, FUBP3 / Fold change vs veh, FUBP3 / RFU, TP53 / Fold change vs veh, TP53 / RFU, TNKS2 / Fold change vs veh, TNKS2 / RFU, ZFP14 / Fold change vs veh, ZFP14 / RFU, ACTR2 / Fold change vs veh, ACTR2 / RFU, PPP3R1 / Fold change vs veh, PPP3R1 / RFU, PIK3R1 / Fold change vs veh, PIK3R1 / RFU, HNRNPA1 / Fold change vs veh, HNRNPA1 / RFU, RNF170 / Fold change vs veh, RNF170 / RFU, ZNF28 / Fold change vs veh, ZNF28 / RFU, RNGTT / Fold change vs veh, RNGTT / RFU, OGT / Fold change vs veh, OGT / RFU, BRD1 / Fold change vs veh, BRD1 / RFU, MARS / Fold change vs veh, MARS / RFU, ZNF655 / Fold change vs veh, ZNF655 / RFU, FAHD1 / Fold change vs veh, FAHD1 / RFU, BDP1 / Fold change vs veh, BDP1 / RFU, LRRCC1 / Fold change vs veh, LRRCC1 / RFU, ARID1A / Fold change vs veh, ARID1A / RFU, ZNF146 / Fold change vs veh, ZNF146 / RFU, ZNF330 / Fold change vs veh, ZNF330 / RFU, GPN3 / Fold change vs veh, GPN3 / RFU, C9orf123 / Fold change vs veh, C9orf123 / RFU, N4BP2L2 / Fold change vs veh, N4BP2L2 / RFU, ARFIP1 / Fold change vs veh, ARFIP1 / RFU, FAM179B / Fold change vs veh, FAM179B / RFU, BCL10 / Fold change vs veh, BCL10 / RFU, UHRF1BP1L / Fold change vs veh, UHRF1BP1L / RFU, BET1 / Fold change vs veh, BET1 / RFU, CNOT2 / Fold change vs veh, CNOT2 / RFU, ZNF268 / Fold change vs veh, ZNF268 / Fold change vs veh, ZNF507 / RFU, DGCR2 / Fold change vs veh, DGCR2 / RFU, WDSUB1 / Fold change vs veh, WDSUB1 / Fold change vs veh, HSP90B1 /// MIR3652 / RFU, ADSS / Fold change vs veh, ADSS / RFU, GK / Fold change vs veh, GK / RFU, ZNF148 / Fold change vs veh, ZNF148 / RFU, TAF9 / Fold change vs veh, TAF9 / RFU, SLC1A5 / Fold change vs veh, SLC1A5 / RFU, SLMO2 / Fold change vs veh, SLMO2 / RFU, ABCC4 / Fold change vs veh, ABCC4 / RFU, LOC101060439 /// RAP1B / Fold change vs veh, LOC101060439 /// RAP1B / RFU, RFX7 / Fold change vs veh, RFX7 / RFU, GTPBP10 / Fold change vs veh, GTPBP10 / RFU, CNEP1R1 / Fold change vs veh, CNEP1R1 / RFU, BIVM-ERCC5 /// ERCC5 / Fold change vs veh, BIVM-ERCC5 /// ERCC5 / RFU, ILF3 / Fold change vs veh, ILF3 / RFU 11762660_at / Fold change /veh 11762660_at / RFU VCAN (11757783_s_at) / Fold change /veh VCAN (11757783_s_at) / RFU DDX43 (11728927_at) / Fold change /veh DDX43 (11728927_at) / RFU KRT8 (11758188_x_at) / Fold change /veh KRT8 (11758188_x_at) / RFU NKD1 (11759106_at) / Fold change /veh NKD1 (11759106_at) / RFU SRD5A1 (11742802_a_at) / Fold change /veh SRD5A1 (11742802_a_at) / RFU TPSAB1 /// TPSB2 (11721975_s_at) / Fold change /veh TPSAB1 /// TPSB2 (11721975_s_at) / RFU GSTM3 (11746129_a_at) / Fold change /veh GSTM3 (11746129_a_at) / RFU IL23R (11737362_x_at) / Fold change /veh IL23R (11737362_x_at) / RFU TMEM51 (11727254_a_at) / Fold change /veh TMEM51 (11727254_a_at) / RFU PIWIL2 (11732686_x_at) / Fold change /veh PIWIL2 (11732686_x_at) / RFU ORM1 (11744905_x_at) / Fold change /veh ORM1 (11744905_x_at) / RFU CCDC152 (11743942_at) / Fold change /veh CCDC152 (11743942_at) / RFU ECM1 (11717891_a_at) / Fold change /veh ECM1 (11717891_a_at) / RFU IL23R (11748794_a_at) / Fold change /veh IL23R (11748794_a_at) / RFU TNFAIP8L3 (11732012_x_at) / Fold change /veh TNFAIP8L3 (11732012_x_at) / RFU MBOAT4 (11741988_at) / Fold change /veh MBOAT4 (11741988_at) / RFU 11764193_at / Fold change /veh 11764193_at / RFU TMEM53 (11763286_at) / Fold change /veh TMEM53 (11763286_at) / RFU MAGEB2 (11727129_at) / Fold change /veh MAGEB2 (11727129_at) / RFU TMEM200A (11744735_a_at) / Fold change /veh TMEM200A (11744735_a_at) / RFU CCDC152 (11751479_a_at) / Fold change /veh CCDC152 (11751479_a_at) / RFU FAM211A (11726209_a_at) / Fold change /veh FAM211A (11726209_a_at) / RFU RGS16 (11746705_a_at) / Fold change /veh RGS16 (11746705_a_at) / RFU VCAN (11755009_s_at) / Fold change /veh VCAN (11755009_s_at) / RFU RHOB (11743442_s_at) / Fold change /veh RHOB (11743442_s_at) / RFU RGS16 (11720943_a_at) / Fold change /veh RGS16 (11720943_a_at) / RFU RGS16 (11720944_at) / Fold change /veh RGS16 (11720944_at) / RFU, VPS4B / Fold change vs veh, VPS4B / RFU, CREB1 / Fold change vs veh, CREB1 / RFU, DNAJC13 / Fold change vs veh, DNAJC13 / RFU, GNAQ / Fold change vs veh, GNAQ / RFU, CDK5R1 / Fold change vs veh, CDK5R1 / RFU, ZRANB3 / Fold change vs veh, ZRANB3 / RFU, CUL4A / Fold change vs veh, CUL4A / RFU, CCNY / Fold change vs veh, CCNY / RFU, UFL1 / Fold change vs veh, UFL1 / RFU, COG3 / Fold change vs veh, COG3 / RFU, DIAPH2 / Fold change vs veh, DIAPH2 / RFU, SKA2 / Fold change vs veh, SKA2 / RFU, AFF3 / Fold change vs veh, AFF3 / RFU, LMF1 / Fold change vs veh, LMF1 / RFU, IPO11 / Fold change vs veh, IPO11 / RFU, DFFB / Fold change vs veh, DFFB / RFU, FOXP1 / Fold change vs veh, FOXP1 / RFU, CARD8 / Fold change vs veh, CARD8 / RFU, STRN3 / Fold change vs veh, STRN3 / RFU, ADK / Fold change vs veh, ADK / RFU, RASSF2 / Fold change vs veh, RASSF2 / RFU, WIPF1 / Fold change vs veh, WIPF1 / RFU, LARP1B / Fold change vs veh, LARP1B / RFU, RASA1 / Fold change vs veh, RASA1 / RFU, RB1 / Fold change vs veh, RB1 / RFU, PPFIA1 / Fold change vs veh, PPFIA1 / RFU, MAT2A / Fold change vs veh, MAT2A / RFU, CCT5 / Fold change vs veh, CCT5 / RFU, WDR92 / Fold change vs veh, WDR92 / RFU, CUX1 / Fold change vs veh, CUX1 / RFU, TTC7A / Fold change vs veh, TTC7A / RFU, TMEM135 / Fold change vs veh, TMEM135 / RFU, DEPTOR / Fold change vs veh, DEPTOR / RFU, CPM / Fold change vs veh, CPM / RFU, DNAJB6 / Fold change vs veh, DNAJB6 / RFU, CACNA2D3 / Fold change vs veh, CACNA2D3 / RFU, DTX4 / Fold change vs veh, DTX4 / RFU, TFCP2 / Fold change vs veh, TFCP2 / RFU, GMCL1 /// GMCL1P1 / Fold change vs veh, GMCL1 /// GMCL1P1 / RFU, AEBP2 / Fold change vs veh, AEBP2 / RFU, SNHG1 /// SNORD22 /// SNORD25 /// SNORD26 /// SNORD27 /// SNORD28 /// SNORD29 /// SNORD31 / Fold change vs veh, SNHG1 /// SNORD22 /// SNORD25 /// SNORD26 /// SNORD27 /// SNORD28 /// SNORD29 /// SNORD31 / Fold change (Aza/veh), C12orf56 (ProbeSet 11735607_a_at) / Fold change (ACY-1035/veh), C12orf56 (ProbeSet 11735607_a_at) / Fold change (Aza/veh), FGFR1OP (ProbeSet 11751329_s_at) / Fold change (ACY-1035/veh), FGFR1OP (ProbeSet 11751329_s_at) / Fold change (Aza/veh), VPS36 (ProbeSet 11739960_a_at) / Fold change (ACY-1035/veh), VPS36 (ProbeSet 11739960_a_at) / RFU SYPL1 (11715823_x_at) / Fold change /veh SYPL1 (11715823_x_at) / RFU IGFBP7 (11715501_s_at) / Fold change /veh IGFBP7 (11715501_s_at) / RFU REEP3 (11722064_at) / Fold change /veh REEP3 (11722064_at) / RFU IGLL1 (11728026_x_at) / Fold change /veh IGLL1 (11728026_x_at): dose or concentration left out as unconfirmed. The note with it: ProbeSet 11741311_a_at; LIST B.

For `Nc1ncn([C@@H]2O[C@H](CO)[C@@H](O)[C@H]2O)c(=O)n1` [azacitidine], the “Fold change vs veh, ZNF655” value stood at 0.98.

For the origin of these results see paper PMC5218480 (PLoS ONE, 2017).
